This is an account of results in patent publication US20240300886A1, “ARYLCYCLOHEXYLAMINE DERIVATIVES AND THEIR USE IN THE TREATMENT OF PSYCHIATRIC DISORDERS” (GILGAMESH PHARMACEUTICALS, INC., priority 2021, published 2024).

The nature of data set [1]: Oral bioavailability in rats, Method A (plasma PK). Type of data set: in vivo, Sprague Dawley rats. Conditions: rat plasma. Here is the method:
Animals. Male Sprague Dawley rats were used in these studies. Animals were randomly assigned to treatment groups and were fasted for 4 h before dosing.
Drugs. Test compounds were dissolved in normal saline and administered intravenously (iv) or orally (po) at a dose of 10 mg/kg (calculated based on freebase) and at a volume of 5 mL/kg body weight. Compounds were tested as the racemates or pure enantiomers, as indicated.
Sample Collection and Bioanalysis. Blood samples were collected under 2,2,2-tribromoethanol anesthesia (150 mg/kg, ip) from the orbital sinus at 0.083, 0.25, 0.5, 1, 2, 4, 8 and 24 h (4 animals per time point) into microcontainers containing K2EDTA. Immediately after collection of blood, rats were euthanized by […]. All samples were immediately processed, flash-frozen, and stored at −70° C. until subsequent analysis. Plasma samples were separated by centrifugation of whole blood and aliquots (50 μL) were mixed with 200 μL of internal standard solution (400 ng/mL in 1:1 v/v CH3CN:MeOH). After mixing by pipetting and centrifuging for 4 min at 6,000 rpm, 0.5 μL of each supernatant was analyzed for drug using a fit-for-purpose liquid chromatography-tandem mass spectrometry (LC-MS/MS) method, with authentic samples of each analyte used for calibration and identification.
Data Analysis. The drug concentrations of samples below the lower limit of quantitation (LLOQ) were designated as zero. Pharmacokinetic data analysis was performed using noncompartmental, bolus injection or extravascular input analysis models in WinNonlin 5.2 (PharSight). Data points below LLOQ were presented as missing to improve validity of t1/2 calculations.

Data set [2] concerns the target serotonin transporter (SERT) (Homo sapiens (Human), UniProt P31645). In words: SERT competition radioligand binding ([3H]imipramine). Conditions: for pKi: Human recombinant (CHO cells), 2.0 nM [3H]imipramine. Here is the method: Disclosed compounds were tested for their binding affinity at the serotonin transporter (SERT) using a competition radioligand binding assay (Eurofins Cerep). Assay conditions are described in Table 16 below.

A short description of data set [3]: Stability in liver microsomes (Example 21), beagle dog. Type of data set: in vitro ADME. As to conditions: male, pH 7.4, 0.5 mg/mL protein. Here is the method:
(§1) General Procedure. Briefly, test compounds (final concentration 1 μM) were incubated in duplicate with liver microsomes from male animals of the indicated species (final protein concentration 0.5 mg/mL) in 50 mM sodium phosphate buffer (pH 7.4) with or without NADPH (1 mM). Total incubation volume was 500 μL. At 0, 5, 15, 30, and 60 min, aliquots of 50 μL were withdrawn, quenched with acetonitrile (150 μL), and analyzed for parent compound remaining using a fit-for-purpose LC-MS/MS method. Intrinsic clearance and half-life were calculated. Clearance values below zero were rounded to zero.
(In general: Liver microsomes are vesicles of endoplasmic reticulum, rich in cytochrome P450 enzymes.)

Data set [4] can be described thus: Stability in liver microsomes (Example 21), Gottingen minipig. As to conditions: male, pH 7.4, 0.5 mg/mL protein. Type of data set: in vitro ADME. Here is the method:
as §1

The nature of data set [5]: Stability in liver microsomes (Example 21), cynomolgus monkey. Type of data set: in vitro ADME. Conditions: male, pH 7.4, 0.5 mg/mL protein. Here is the method: as §1
For data set [6], the target named is recombinant human NMDA receptor (GRIN1/GRIN2B) (Homo sapiens (Human), UniProt Q05586+Q13224). The data set can be described thus: Unblocking kinetics at the NMDA receptor in Xenopus laevis oocytes (two-electrode voltage clamp). Conditions: for Unblocking T1/2 ± SEM: compounds applied at 3×IC50, -70 mV, n ≥ 5. Type of data set: cell-based. Here is the method:
Compounds 2R, 2S, and 2-(2-fluorophenyl)-2-(methylamino)cyclohexan-1-one 2-F-DCK were tested for unblocking kinetics at the NMDA receptor in Xenopus laevis oocytes expressing recombinant human NMDA receptor (GRIN1/GRIN2B) (Table 22).
Experimental Procedure. Oocytes were harvested from adult Xenopus laevis and incubated in 96 well plates for two to four days prior to recordings. Plasmids containing cDNA encoding for human NMDA receptor subunits GRIN1 and GRIN2B were transcribed using the mMessage mMachine T7 transcription kit (Ambion, USA). The Roboocyte automated injection system was used for injection of cRNA coding for hNMDA receptor subunits at a concentration of 100 ng/μL per subunit. Oocytes were clamped to a holding potential of −70 mV and induced currents after compound application were sampled at 200 Hz at room temperature. Agonist induced currents were recorded with a two-electrode voltage clamp. To determine the unblocking kinetics, glutamate and glycine (3 and 10 μM, respectively) were applied to the oocytes and the current recorded for 90 s. Then, compounds were applied at 3×IC50 for 120 s and the currents recorded.
(Two-electrode voltage clamp holds a large cell at a set potential and records current.)

Data set [7] can be described thus: Comparative oral pharmacokinetics of 2R, 2S and 2-F-DCK in mice. As to conditions: 10 mg/kg po; for Cmax / half-life / AUC(0-t): male, C57BL/6; for half-life: read-out: t1/2 (po); for AUC(0-t): read-out: AUC0-last (po) (converted). Type of data set: in vivo, C57BL/6 mice. Here is the method: Animals. Male C57BL/6 mice were used in these studies. Aminals were randomly assigned to treatment groups and were fasted for 4 h before dosing.
Drugs. Test compounds were dissolved in a vehicle consisting of normal saline, They were then administered orally (po) at a dose of 10 mg/kg (calculated based on freebase) and at a volume of 10 mL/kg body weight.
Sample Collection and Bioanalysis. Blood samples (approximately 60 μL) were collected under light isoflurane anesthesia (Surgivet®) from the retro orbital plexus at 0.08, 0.25, 0.5, 1, 2, 4, 8, and 24 h (4 animals per time point). Immediately after blood collection, plasma was harvested by centrifugation at 4,000 rpm for 10 min at 4° C. and samples were stored at −70±10° C. until bioanalysis. Following blood collection, animals were immediately sacrificed, the abdominal vena-cava was cut open, and the whole body was perfused from the heart using 10 mL of normal saline, and brain samples were collected from all animals. After isolation, brain samples were rinsed three times in ice-cold normal saline (for 5-10 seconds/rinse using ˜5-10 mL normal saline in disposable petri dish for each rinse) and dried on blotting paper. Brain samples were homogenized using ice-cold phosphate-buffered saline (pH 7.4). Total homogenate volume was three times the tissue weight. All homogenates were stored at −70±10° C. until bioanalysis. For bioanalysis, 25 μL aliquots of plasma/brain study samples or spiked plasma/brain calibration standards were added to individual pre-labeled micro-centrifuge tubes followed by 100 μL of an internal standard solution (glipizide, 500 ng/mL in acetonitrile) except for blanks, where 100 μL of acetonitrile was added. Samples were vortexed for 5 minutes and then centrifuged for 10 minutes at 4,000 rpm at 4° C. Following centrifugation, 100 μL of each clear supernatant was transferred to a 96 well plate and analyzed with a fit-for-purpose LC-MS/MS method, with authentic samples of each analyte used for calibration and identification.
Data Analysis. Pharmacokinetic parameters were estimated using the non-compartmental analysis tool of Phoenix® WinNonlin software (Ver 8.0).

Data set [8] in a line: Stability in liver microsomes (Example 21), CD-1 mouse. As to conditions: male, pH 7.4, CD-1 Mouse liver microsomes, 0.5 mg/mL protein. Type of data set: in vitro ADME. Here is the method: as §1

pKi: −log10 of the molar value. Where two headings read alike, the source gives them in different places.

Sequence of recombinant human NMDA receptor (GRIN1/GRIN2B) (Q13224 whole entry, looked up, other chains not shown): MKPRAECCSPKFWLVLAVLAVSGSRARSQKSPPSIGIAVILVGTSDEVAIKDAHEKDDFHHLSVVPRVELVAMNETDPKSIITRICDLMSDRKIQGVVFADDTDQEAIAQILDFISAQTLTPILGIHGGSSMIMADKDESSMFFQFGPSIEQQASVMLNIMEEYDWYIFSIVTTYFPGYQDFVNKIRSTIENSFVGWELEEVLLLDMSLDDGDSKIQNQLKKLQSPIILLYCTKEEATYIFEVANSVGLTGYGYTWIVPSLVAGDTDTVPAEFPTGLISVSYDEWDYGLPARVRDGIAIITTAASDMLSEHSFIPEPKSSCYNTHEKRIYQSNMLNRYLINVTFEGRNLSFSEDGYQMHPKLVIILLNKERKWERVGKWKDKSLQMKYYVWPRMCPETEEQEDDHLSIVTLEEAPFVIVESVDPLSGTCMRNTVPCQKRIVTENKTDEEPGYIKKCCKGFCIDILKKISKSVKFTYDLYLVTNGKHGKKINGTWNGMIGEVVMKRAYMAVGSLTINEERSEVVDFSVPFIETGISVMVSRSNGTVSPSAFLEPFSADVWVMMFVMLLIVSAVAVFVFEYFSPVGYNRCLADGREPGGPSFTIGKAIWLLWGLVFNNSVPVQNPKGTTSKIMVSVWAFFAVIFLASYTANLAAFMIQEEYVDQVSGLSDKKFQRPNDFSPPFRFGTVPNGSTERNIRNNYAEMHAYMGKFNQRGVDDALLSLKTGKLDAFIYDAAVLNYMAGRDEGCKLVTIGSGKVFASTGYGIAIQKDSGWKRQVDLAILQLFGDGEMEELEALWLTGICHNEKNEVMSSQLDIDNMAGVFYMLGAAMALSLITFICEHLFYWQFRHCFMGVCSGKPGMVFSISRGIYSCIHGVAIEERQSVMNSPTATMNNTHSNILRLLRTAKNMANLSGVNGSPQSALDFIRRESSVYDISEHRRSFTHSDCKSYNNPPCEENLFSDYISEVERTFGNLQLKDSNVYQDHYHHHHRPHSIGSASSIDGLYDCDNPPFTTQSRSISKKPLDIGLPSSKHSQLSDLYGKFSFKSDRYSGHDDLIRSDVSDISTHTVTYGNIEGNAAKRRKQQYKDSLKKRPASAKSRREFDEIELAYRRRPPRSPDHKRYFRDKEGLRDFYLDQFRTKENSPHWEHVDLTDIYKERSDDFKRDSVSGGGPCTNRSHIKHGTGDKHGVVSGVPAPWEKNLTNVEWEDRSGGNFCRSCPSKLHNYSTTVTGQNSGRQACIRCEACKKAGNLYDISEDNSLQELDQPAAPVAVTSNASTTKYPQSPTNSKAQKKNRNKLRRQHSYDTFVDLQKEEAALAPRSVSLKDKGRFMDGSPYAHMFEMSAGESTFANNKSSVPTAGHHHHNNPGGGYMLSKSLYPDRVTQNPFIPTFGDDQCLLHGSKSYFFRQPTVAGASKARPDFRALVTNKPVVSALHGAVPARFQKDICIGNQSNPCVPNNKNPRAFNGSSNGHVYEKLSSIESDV

The Cmax is the highest concentration seen after dosing. As to `CNC1(c2ccccc2Cl)CCCCC1=O` (racemic) [racemic ketamine, ketamine], the AUC(0-inf) is 1350 ng·h/mL in data set [1] (male, Sprague Dawley, 10 mg/kg iv, read-out: AUC0-inf (iv) (converted)) and 125 ng·h/mL in data set [1] (male, Sprague Dawley, 10 mg/kg po, read-out: AUC0-inf (po) (converted)). In addition, the half-life in data set [1] (male, Sprague Dawley, 10 mg/kg iv, read-out: t1/2 (iv)) is 0.693 h; in data set [1] (male, Sprague Dawley, 10 mg/kg po, read-out: t1/2 (po)) it was 0.562 h. The compound further displayed a Cmax in data set [1] (male, Sprague Dawley, 10 mg/kg po) of 190 ng/mL. The same compound returned a F in data set [1] (10 mg/kg) of 9.07%.
By pKi is commonly meant the Ki on a negative log10 scale, so that one unit is a factor of ten. In general, microsomal CLint refers to the rate of metabolic loss divided by the concentration. Consider `CN[C@@]1(c2ccc(F)cc2)CCCCC1=O` [Compound 2R, (R)-2-(4-fluorophenyl)-2(methylamino)cyclohexan-1-one], for which the negative logarithm of the Ki (pKi) in data set [2] is 5.21. Besides, the “SERT binding potency relative to 2S (more potent)” value in data set [2] (human recombinant SERT) was ~2 fold. For the same compound, in data set [3], the microsomal CLint at 1 μM is 10.5 µL/min/mg. For the same compound, the microsomal CLint at 1 μM in data set [4] is 16.4 µL/min/mg. Moreover, in data set [5], the microsomal CLint at 1 μM amounted to 9.5 µL/min/mg. In data set [6], the “half-life for unblocking compared to 2-F-DCK (in words)” value was “much shorter half-life for unblocking” and the “Unblocking T1/2 ± SEM” value is reported as 22.7 ± 2.3 s. For the same compound, in data set [7] (mouse brain), the Cmax stood at 3280 ng/g, the half-life came out at 2.97 h and the “AUC0-last (po)” value came out at 200464 ng·min/g. In data set [7] (mouse plasma), the Cmax was 1180 ng/mL, the AUC(0-t) is 1120 ng·h/mL and the half-life came out at 1.38 h.
For `CN[C@]1(c2ccc(F)cc2)CCCCC1=O` [Compound 2S, (S)-2-(4-fluorophenyl)-2-(methylamino)cyclohexan-1-one], the pKi in data set [2] is 4.92. The microsomal CLint at 1 μM amounted to 3.5 µL/min/mg in data set [8], 7.3 µL/min/mg in data set [3], 20.3 µL/min/mg in data set [4] and 15.3 µL/min/mg in data set [5]. For the same compound, the “half-life for unblocking compared to 2-F-DCK (in words)” value in data set [6] is “much shorter half-life for unblocking”. Also, the “Unblocking T1/2 ± SEM” value in data set [6] is recorded as 27.0 ± 6.1 s. The figures for the Cmax in data set [7] (mouse brain) and in data set [7] (mouse plasma) were 3540 ng/g and 1390 ng/mL, respectively. The half-life worked out at 2.18 h in data set [7] (mouse brain) and 1.48 h in data set [7] (mouse plasma). Moreover, the AUC(0-t) in data set [7] (mouse plasma) was 940 ng·h/mL. Further, in data set [7] (mouse brain), the “AUC0-last (po)” value came out at 123388 ng·min/g.
